Measurements: patent US20260234161A1, “RIFABUTIN ANALOGS FOR THE TREATMENT OF BACTERIAL DISEASES” (BIOVERSYS AG, priority 2023, published 2026)
Converted amounts (≈) assume the structure as drawn.

Columns and labels:
Type in all cases: cell-based
[1] = test system: M. abscessus (ATCC 19977); test: MIC by broth microdilution, M. abscessus in cation adjusted Mueller Hinton broth; conditions: Mycobacteroides abscessus
Description: (§1) MIC values were determined by broth microdilution method according to the CLSI guidelines with the following exceptions: MIC against A. baumannii was performed in RPMI medium supplemented with 10% FCS and MIC against M. abscessus was performed in Middlebrook 7H9 broth supplemented with Middlebrook ADC growth supplement (10%; see column “M. abscessus 7H9”). MIC forM abscessus was determined a second time in standard cation adjusted Mueller Hinton broth without growth supplement (see colum “M. abscessus MH”). All other MIC were performed in standard cation adjusted Mueller Hinton broth, supplemented with Middlebrook ADC growth supplement (5%) for the slow growing mycobacteria (M. xenopi, M. kansasii and M. avium).
(§2) The following procedure applies to all species tested, except forM xenopi. From a fresh culture plate (from overnight to several days depending on the bacteria), cells were resuspended in 0.9% (w/v) saline solution and bacterial inoculum was prepared in the respective testing medium with 5×10^5 CFU/mL. For M. xenopi, the inoculum was prepared from a fresh liquid culture (7H9+ADC). The appropriate volumes of a 10 mg/mL compound solution were directly dispensed in the 96-well assay plate using a digital dispenser to create two-fold dilution series from 32 to 0.002 μg/mL final concentration for A. baumannii and S. aureus; from 16 to 0.016 μg/mL for M. abscessus and M. avium; and from 1 to 6×10^−5 μg/mL for M. kansasii and M. xenopi. 100 μL of bacterial suspension was finally added to the compounds. Plates were covered and incubated without shaking at 35° C. for 20 hours for A. baumanii and S. aureus; at 30° C. for 4 days for M. abscessus; and at 37° C. for 7 days (at least) for M. kansasii (covered with aluminum foil to avoid light exposure), M. avium and M. xenopi. Every experiment contained an antibiotic as quality control. MIC was determined visually as the lowest concentration of a compound that prevents visible growth of the bacteria.
(§3) The in vitro activity of compounds described herein was determined against S. aureus (UAMS-1625 strain), A. baumannii (HUMC1 strain), M. abscessus (ATCC 19977), M. kansasii (ATCC 12478), M. avium (ATCC 25291), and M. xenopi (ATCC 19250).

[2] = test system: M. avium (ATCC 25291); test: MIC by broth microdilution, M. avium; conditions: Mycobacterium avium, ATCC25291, 168 h, cation adjusted Mueller Hinton broth + ADC (5%), 37° C., 7 days (at least)
Description: as §1, §2, §3

[3] = test system: A. baumannii (HUMC1 strain); test: MIC by broth microdilution, A. baumannii (RPMI + 10% FCS); conditions: Acinetobacter baumannii; HUMC1 strain; RPMI medium + 10% FCS; 35° C., 20 hours; read-out: MIC A. baumannii
Description: as §1, §2, §3

[4] = test system: M. kansasii (ATCC 12478); test: MIC by broth microdilution, M. kansasii; conditions: Mycobacterium kansasii, ATCC12478, 168 h, cation adjusted Mueller Hinton broth + ADC (5%), 37° C., 7 days (at least)
Description: as §1, §2, §3

[5] = test system: M. xenopi (ATCC 19250); test: MIC by broth microdilution, M. xenopi; conditions: Mycobacterium xenopi, ATCC19250, 168 h, cation adjusted Mueller Hinton broth + ADC (5%), 37° C., 7 days (at least)
Description: as §1, §2, §3

[6] = test system: S. aureus (UAMS-1625 strain); test: MIC by broth microdilution, S. aureus; conditions: Staphylococcus aureus, 20 h, read-out: MIC S. aureus
Description: as §1, §2, §3

[7] = test system: M. abscessus (ATCC 19977); test: MIC by broth microdilution, M. abscessus in Middlebrook 7H9 broth + ADC; conditions: Mycobacteroides abscessus
Description: as §1, §2, §3

[8] = ATCC19977, 96 h, ATCC 19977, cation adjusted Mueller Hinton broth without growth supplement, 30° C., 4 days, read-out: MIC M. abscessus MH
[9] = ATCC19977, 96 h, ATCC 19977, Middlebrook 7H9 broth + ADC growth supplement (10%), 30° C., 4 days, read-out: MIC M. abscessus 7H9

Structure (SMILES) | MIC [1, 8] | MIC [2] | MIC [3] | MIC [4] | MIC [5] | MIC [6] | MIC [7, 9] | MIC ([1]; ATCC19977, Mueller Hinton broth, read-out: MIC value against M. abscessus in Mueller Hinton broth) | MIC ([7]; ATCC19977, 7H9 broth, read-out: MIC value against M. abscessus in 7H9 broth)
CO[C@H]1/C=C/O[C@@]2(C)Oc3c(C)c(O)c4c(c3C2=O)C2=NC3(CCN(CC(C)C)CC3)NC2=C(NC(=O)/C(C)=C\C=C\[C@H](C)[C@H](O)[C@@H](C)[C@@H](O)[C@@H](C)[C@H](OC(=O)N2CCC3(CCN(C)CC3)CC2)[C@@H]1C)C4=O [Compound 21] | 2 µg/mL (≈ 2 µM) | 0.5 µg/mL | ≤ 0.016 µg/mL | 0.125 µg/mL | 0.25 µg/mL | 0.06 µg/mL (≈ 0.06 µM) |  |  | 
CO[C@H]1/C=C/O[C@@]2(C)Oc3c(C)c(O)c4c(c3C2=O)C2=NC3(CCN(CC(C)C)CC3)NC2=C(NC(=O)/C(C)=C\C=C\[C@H](C)[C@H](O)[C@@H](C)[C@@H](O)[C@@H](C)[C@H](OC(=O)N2CCC3(CCN(CC5CCCCC5)CC3)CC2)[C@@H]1C)C4=O [Compound 72] | 0.25 µg/mL (≈ 0.231 µM) | 0.03 µg/mL | 0.06 µg/mL | 0.0004 µg/mL | 0.008 µg/mL | 0.25 µg/mL (≈ 0.231 µM) |  |  | 
CCCCN1CCN(C(=O)O[C@H]2[C@H](C)[C@H](O)[C@H](C)[C@@H](O)[C@@H](C)/C=C/C=C(/C)C(=O)NC3=C4NC5(CCN(CC(C)C)CC5)N=C4c4c(c(O)c(C)c5c4C(=O)[C@@](C)(O/C=C/[C@H](OC)[C@H]2C)O5)C3=O)CC1 [Compound 50] | 0.25 µg/mL (≈ 0.257 µM) | 0.125 µg/mL | 0.03 µg/mL | 0.008 µg/mL | 0.008 µg/mL | 0.125 µg/mL (≈ 0.128 µM) |  |  | 
CO[C@H]1/C=C/O[C@@]2(C)Oc3c(C)c(O)c4c(c3C2=O)C2=NC3(CCN(CC(C)C)CC3)NC2=C(NC(=O)/C(C)=C\C=C\[C@H](C)[C@H](O)[C@@H](C)[C@@H](O)[C@@H](C)[C@H](OC(=O)N2CCN(C)CC2)[C@@H]1C)C4=O [Compound 6] | 4 µg/mL (≈ 4.3 µM) |  | 0.06 µg/mL |  |  | 0.06 µg/mL (≈ 0.0644 µM) | 1 µg/mL |  | 
CO[C@H]1/C=C/O[C@@]2(C)Oc3c(C)c(O)c4c(c3C2=O)C2=NC3(CCN(CC(C)C)CC3)NC2=C(NC(=O)/C(C)=C\C=C\[C@H](C)[C@H](O)[C@@H](C)[C@@H](O)[C@@H](C)[C@H](OC(C)=O)[C@@H]1C)C4=O [Rifabutin, rifabutin] | 16 µg/mL (≈ 18.9 µM) |  | ≤ 0.002 µg/mL |  |  | 0.016 µg/mL (≈ 0.0189 µM) | 8 µg/mL | 16 µg/mL (≈ 18.9 µM) | 8 µg/mL
CO[C@H]1/C=C/O[C@@]2(C)Oc3c(C)c(O)c4c(c3C2=O)C2=NC3(CCN(CC(C)C)CC3)NC2=C(NC(=O)/C(C)=C\C=C\[C@H](C)[C@H](O)[C@@H](C)[C@@H](O)[C@@H](C)[C@H](OC(=O)N2CCN(CCN3CCCCC3)CC2)[C@@H]1C)C4=O [Compound 12] | 1 µg/mL (≈ 0.972 µM) |  | ≤ 0.002 µg/mL |  |  | 0.125 µg/mL (≈ 0.122 µM) | 0.5 µg/mL |  | 
CCCCN1CCC(NC(=O)O[C@H]2[C@H](C)[C@H](O)[C@H](C)[C@@H](O)[C@@H](C)/C=C/C=C(/C)C(=O)NC3=C4NC5(CCN(CC(C)C)CC5)N=C4c4c(c(O)c(C)c5c4C(=O)[C@@](C)(O/C=C/[C@H](OC)[C@H]2C)O5)C3=O)CC1 [Compound 30] | 0.5 µg/mL (≈ 0.506 µM) | 0.125 µg/mL | ≤ 0.016 µg/mL | 0.016 µg/mL | 0.06 µg/mL | 0.06 µg/mL (≈ 0.0608 µM) |  |  | 
CO[C@H]1/C=C/O[C@@]2(C)Oc3c(C)c(O)c4c(c3C2=O)C2=NC3(CCN(CC(C)C)CC3)NC2=C(NC(=O)/C(C)=C\C=C\[C@H](C)[C@H](O)[C@@H](C)[C@@H](O)[C@@H](C)[C@H](OC(=O)N2CCCN(c3ccccn3)CC2)[C@@H]1C)C4=O [Compound 15] | 1 µg/mL (≈ 0.992 µM) |  | 0.008 µg/mL |  |  | 0.06 µg/mL (≈ 0.0595 µM) | 0.5 µg/mL |  | 
CO[C@H]1/C=C/O[C@@]2(C)Oc3c(C)c(O)c4c(c3C2=O)C2=NC3(CCN(CC(C)C)CC3)NC2=C(NC(=O)/C(C)=C\C=C\[C@H](C)[C@H](O)[C@@H](C)[C@@H](O)[C@@H](C)[C@H](OC(=O)N2CCC(N(C)C)CC2)[C@@H]1C)C4=O [Compound 3] | 4 µg/mL (≈ 4.17 µM) |  | ≤ 0.002 µg/mL |  |  | 0.03 µg/mL (≈ 0.0313 µM) | 0.5 µg/mL |  | 
CO[C@H]1/C=C/O[C@@]2(C)Oc3c(C)c(O)c4c(c3C2=O)C2=NC3(CCN(CC(C)C)CC3)NC2=C(NC(=O)/C(C)=C\C=C\[C@H](C)[C@H](O)[C@@H](C)[C@@H](O)[C@@H](C)[C@H](OC(=O)N2CCCN(c3ccc(F)cc3)CC2)[C@@H]1C)C4=O [Compound 16] | 2 µg/mL (≈ 1.95 µM) |  | 0.03 µg/mL |  |  | 0.25 µg/mL (≈ 0.244 µM) | 1 µg/mL |  | 
CO[C@H]1/C=C/O[C@@]2(C)Oc3c(C)c(O)c4c(c3C2=O)C2=NC3(CCN(CC(C)C)CC3)NC2=C(NC(=O)/C(C)=C\C=C\[C@H](C)[C@H](O)[C@@H](C)[C@@H](O)[C@@H](C)[C@H](OC(=O)N2CCC(NC(C)C)CC2)[C@@H]1C)C4=O [Compound 63] | 2 µg/mL (≈ 2.06 µM) | 0.5 µg/mL | ≤ 0.016 µg/mL | 0.125 µg/mL | 0.25 µg/mL | 0.06 µg/mL (≈ 0.0617 µM) |  |  | 
CO[C@H]1/C=C/O[C@@]2(C)Oc3c(C)c(O)c4c(c3C2=O)C2=NC3(CCN(CC(C)C)CC3)NC2=C(NC(=O)/C(C)=C\C=C\[C@H](C)[C@H](O)[C@@H](C)[C@@H](O)[C@@H](C)[C@H](OC(=O)N2CCN(CC3CC3)CC2)[C@@H]1C)C4=O [Compound 56] | 0.25 µg/mL (≈ 0.257 µM) | 0.06 µg/mL | ≤ 0.016 µg/mL | 0.004 µg/mL | 0.008 µg/mL | 0.125 µg/mL (≈ 0.129 µM) |  |  | 
CO[C@H]1/C=C/O[C@@]2(C)Oc3c(C)c(O)c4c(c3C2=O)C2=NC3(CCN(CC(C)C)CC3)NC2=C(NC(=O)/C(C)=C\C=C\[C@H](C)[C@H](O)[C@@H](C)[C@@H](O)[C@@H](C)[C@H](OC(=O)N2CCC(Nc3cccnc3)CC2)[C@@H]1C)C4=O [Compound 5] | 4 µg/mL (≈ 3.97 µM) |  | 0.004 µg/mL |  |  | 0.125 µg/mL (≈ 0.124 µM) | 1 µg/mL |  | 
CO[C@H]1/C=C/O[C@@]2(C)Oc3c(C)c(O)c4c(c3C2=O)C2=NC3(CCN(CC(C)C)CC3)NC2=C(NC(=O)/C(C)=C\C=C\[C@H](C)[C@H](O)[C@@H](C)[C@@H](O)[C@@H](C)[C@H](OC(=O)N2CCN(C3CCN(C)CC3)CC2)[C@@H]1C)C4=O [Compound 11] | 4 µg/mL (≈ 3.94 µM) |  | ≤ 0.002 µg/mL |  |  | 0.125 µg/mL (≈ 0.123 µM) | 0.5 µg/mL |  | 
CO[C@H]1/C=C/O[C@@]2(C)Oc3c(C)c(O)c4c(c3C2=O)C2=NC3(CCN(CC(C)C)CC3)NC2=C(NC(=O)/C(C)=C\C=C\[C@H](C)[C@H](O)[C@@H](C)[C@@H](O)[C@@H](C)[C@H](OC(=O)N2CCN(CCN3CCOCC3)CC2)[C@@H]1C)C4=O [Compound 13] | 0.5 µg/mL (≈ 0.485 µM) |  | ≤ 0.002 µg/mL |  |  | 0.06 µg/mL (≈ 0.0582 µM) | 0.5 µg/mL |  | 
